Paper PMC9805530 (European journal of medicinal chemistry, 2022)
“Also recorded” adds a separate entry of the source.

Experiments:
Sirt5 = target: T1, Sirt5 (Homo sapiens, UniProt Q9NXA8); assay: Fluorogenic Sirt5 Assay Kit; type: biochemical; conditions: 100 μM compounds, 37 °C 30 min
T1 sequence (Q9NXA8 37-310): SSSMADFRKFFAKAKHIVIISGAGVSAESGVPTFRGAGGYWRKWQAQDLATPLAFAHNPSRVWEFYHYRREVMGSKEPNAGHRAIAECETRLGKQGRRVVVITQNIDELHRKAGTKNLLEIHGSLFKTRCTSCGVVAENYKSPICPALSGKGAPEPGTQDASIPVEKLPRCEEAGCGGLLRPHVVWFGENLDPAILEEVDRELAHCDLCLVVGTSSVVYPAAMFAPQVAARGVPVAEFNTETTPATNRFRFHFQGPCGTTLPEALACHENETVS

H1299 cells [1] = assay: Colony formation assay; type: cell-based; conditions: 30 μM, one week
BV2 cells = assay: LPS-induced inflammatory gene mRNA expression; conditions: 30 μM pretreatment 30 minutes, 100 ng/mL LPS 6 hours
H1299 cells [2] = assay: Acetylated H3K9 to total H3 in cancer cells; type: cell-based; conditions: 30 μM, 24 hours
Sirt6 [3] = target: T2, Sirt6 (Homo sapiens, UniProt Q8N6T7); assay: Sirt6-dependent peptide deacetylation, Fluor de Lys; conditions: for effect on Sirt6 activity (time course): Fig. 3A; for Activation Fold 30 μM: compound at 30 μM; for Activation Fold 30 μM / Activation Fold 100 μM: mean ± SD, at least two independent experiments; for Activation Fold 100 μM: compound at 100 μM
T2 sequence (Q8N6T7 whole entry): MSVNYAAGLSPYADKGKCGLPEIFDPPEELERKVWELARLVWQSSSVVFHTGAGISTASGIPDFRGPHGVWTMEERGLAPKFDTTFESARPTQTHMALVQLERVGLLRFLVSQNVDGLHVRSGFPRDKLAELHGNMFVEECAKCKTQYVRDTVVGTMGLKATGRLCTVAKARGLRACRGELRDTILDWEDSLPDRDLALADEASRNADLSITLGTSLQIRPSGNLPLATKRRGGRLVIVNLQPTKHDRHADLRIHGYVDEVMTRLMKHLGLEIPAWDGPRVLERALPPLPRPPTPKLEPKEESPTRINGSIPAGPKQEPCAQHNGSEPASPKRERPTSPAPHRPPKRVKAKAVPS

Sirt1 = target: T3, Sirt1 (Homo sapiens, UniProt Q96EB6); assay: Sirt1 deacetylation Activity Assay Kit; conditions: time course, Fig. 3
T3 sequence (Q96EB6 1-747): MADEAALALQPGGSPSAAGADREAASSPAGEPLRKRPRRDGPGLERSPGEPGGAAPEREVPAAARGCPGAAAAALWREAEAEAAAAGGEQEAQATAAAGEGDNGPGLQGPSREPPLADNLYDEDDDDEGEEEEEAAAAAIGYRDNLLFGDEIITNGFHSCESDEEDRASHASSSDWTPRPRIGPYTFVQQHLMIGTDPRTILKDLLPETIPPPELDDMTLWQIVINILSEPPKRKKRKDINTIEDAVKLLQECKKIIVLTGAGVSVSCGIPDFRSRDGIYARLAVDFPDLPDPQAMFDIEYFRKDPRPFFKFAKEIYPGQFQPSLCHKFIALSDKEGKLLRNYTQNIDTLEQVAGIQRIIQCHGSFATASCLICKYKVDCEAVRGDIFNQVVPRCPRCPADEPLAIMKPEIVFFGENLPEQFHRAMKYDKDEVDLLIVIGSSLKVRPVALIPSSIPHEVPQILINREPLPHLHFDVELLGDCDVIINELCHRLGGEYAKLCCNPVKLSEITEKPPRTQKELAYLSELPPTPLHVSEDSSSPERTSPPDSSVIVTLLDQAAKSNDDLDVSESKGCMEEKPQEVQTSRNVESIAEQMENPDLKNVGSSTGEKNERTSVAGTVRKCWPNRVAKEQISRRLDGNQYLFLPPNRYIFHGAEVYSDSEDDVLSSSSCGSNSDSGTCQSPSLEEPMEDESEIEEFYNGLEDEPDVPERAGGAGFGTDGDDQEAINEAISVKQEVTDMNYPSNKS

Sirt6 [4] = target: T2, Sirt6; type: biochemical; conditions: 100 μM, 30 °C, 60 minutes
PLC/PRF/5 cells [5] = assay: Acetylated H3K9 to total H3 in cancer cells; type: cell-based; conditions: 30 μM, 24 hours
R28 cells = assay: MTT cell viability assay; type: cell-based; conditions: 100 μM, 24 hours
PLC/PRF/5 cells [6] = assay: Colony formation assay; type: cell-based; conditions: 30 μM, one week
Sirt2 = target: T4, Sirt2 (Homo sapiens, UniProt Q8IXJ6); assay: Sirt2 deacetylation Activity Assay Kit; conditions: time course, Fig. 3
T4 sequence (Q8IXJ6 1-389): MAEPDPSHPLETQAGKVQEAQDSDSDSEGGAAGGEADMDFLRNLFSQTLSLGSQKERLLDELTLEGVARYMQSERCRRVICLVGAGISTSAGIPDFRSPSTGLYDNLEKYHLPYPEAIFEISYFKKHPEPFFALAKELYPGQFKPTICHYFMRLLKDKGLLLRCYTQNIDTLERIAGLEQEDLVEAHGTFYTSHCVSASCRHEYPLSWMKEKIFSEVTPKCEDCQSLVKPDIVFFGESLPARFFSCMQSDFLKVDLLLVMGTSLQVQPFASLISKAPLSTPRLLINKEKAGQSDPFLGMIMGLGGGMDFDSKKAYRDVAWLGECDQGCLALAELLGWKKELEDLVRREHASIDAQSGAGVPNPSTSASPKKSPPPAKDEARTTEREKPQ

SMILES	effect on Sirt5 desuccinylation activity (Sirt5)	LPS-induced expression of IL-1β (BV2 cells)	LPS-induced expression of IL-6 (BV2 cells)	LPS-induced expression of MCP-1 (BV2 cells)	LPS-induced expression of TNFα (BV2 cells)	effect on Sirt6 activity (time course) (Sirt6 [3])	effect on Sirt1 deacetylation activity (Sirt1)	acetylation of H3K9 in the nucleosome test (Sirt6 [4])	effect on Sirt2 deacetylation activity (Sirt2)	ICAM-1 induction (BV2 cells)	LPS-induced CXCL10 expression (BV2 cells)	LPS-induced iNOS expression (BV2 cells)	Activation Fold 100 μM (Sirt6 [3])	also measured
COCCN1CCN(c2ncccc2C2Nc3ccccc3-n3cccc32)CC1 (stereo not drawn) [Compound 36, 4-(2-(4-(2-Methoxyethyl)piperazin-1-yl)pyridin-3-yl)-4,5-dihydropyrrolo[1,2-a]quinoxaline]	no significant effects	strongly inhibited	strongly inhibited	strongly inhibited	strongly inhibited	specifically promoted	no significant effects	significantly decreased	no significant effects					inhibition of colony formation (H1299 cells [1]): about half; Sirt6-dependent deacetylation of H3K9 (acetylated H3K9 to total H3) (H1299 cells [2]): significantly activated Sirt6 to deacetylate H3K9; decrease of acetylated H3K9 when Sirt6 knockdown by siRNA (H1299 cells [2]; Sirt6 siRNA): abolished; Sirt6-dependent deacetylation of H3K9 (acetylated H3K9 to total H3) (PLC/PRF/5 cells [5]): significantly activated Sirt6 to deacetylate H3K9; decrease of acetylated H3K9 when Sirt6 knockdown by siRNA (PLC/PRF/5 cells [5]; Sirt6 siRNA): abolished; toxicity on R28 cells (R28 cells): no obvious toxicity; inhibition of colony formation (PLC/PRF/5 cells [6]): about half
OCCN1CCN(c2ncccc2C2Nc3ccccc3-n3cccc32)CC1 (stereo not drawn) [Compound 35, 2-(4-(3-(4,5-Dihydropyrrolo[1,2-a]quinoxalin-4-yl)pyridin-2-yl)piperazin-1-yl)ethan-1-ol]	no significant effects	strongly inhibited	strongly inhibited	strongly inhibited	strongly inhibited	specifically promoted	no significant effects	significantly decreased	no significant effects	slight inhibition				inhibition of colony formation (H1299 cells [1]): only a slight inhibitory effect; Sirt6-dependent deacetylation of H3K9 (acetylated H3K9 to total H3) (H1299 cells [2]): no obvious influence; Sirt6-dependent deacetylation of H3K9 (acetylated H3K9 to total H3) (PLC/PRF/5 cells [5]): no obvious influence; toxicity on R28 cells (R28 cells): no obvious toxicity; inhibition of colony formation (PLC/PRF/5 cells [6]): only a slight inhibitory effect
c1ccc2c(c1)NC(c1cccnc1N1CCN(CCN3CCCC3)CC1)c1cccn1-2 (stereo not drawn) [Compound 47, 4-(2-(4-(2-(Pyrrolidin-1-yl)ethyl)piperazin-1-yl)pyridin-3-yl)-4,5-dihydropyrrolo[1,2-a]quinoxaline]	no significant effects	strongly inhibited; also recorded: almost reversed	strongly inhibited; also recorded: almost reversed	strongly inhibited; also recorded: almost reversed	strongly inhibited	specifically promoted	no significant effects	no effect	no significant effects	slight inhibition	significantly repressed	significantly repressed	5.38 ± 0.29 fold	VCAM-1 induction (BV2 cells): obviously inhibit; Activation Fold 30 μM (Sirt6 [3]): 4.80 ± 0.19 fold
OC1CN(CCN2CCN(c3ncccc3C3Nc4ccccc4-n4cccc43)CC2)C1 (stereo not drawn) [Compound 46, 1-(2-(4-(3-(4,5-Dihydropyrrolo[1,2-a]quinoxalin-4-yl)pyridin-2-yl)piperazin-1-yl)ethyl)azetidin-3-ol]	no significant effects	strongly inhibited; also recorded: almost reversed	strongly inhibited; also recorded: almost reversed	strongly inhibited; also recorded: almost reversed	strongly inhibited	specifically promoted	no significant effects	significantly decreased	no significant effects		significantly repressed	significantly repressed		VCAM-1 induction (BV2 cells): obviously inhibit
O=S1(=O)CCN(c2ncccc2C2Nc3ccccc3-n3cccc32)CC1 (stereo not drawn) [Compound 26, 4-(3-(4,5-Dihydropyrrolo[1,2-a]quinoxalin-4-yl)pyridin-2-yl)thiomorpholine 1,1-dioxide]													~ 2 fold	
FC1(F)CCN(c2ncccc2C2Nc3ccccc3-n3cccc32)CC1 (stereo not drawn) [Compound 25, 4-(2-(4,4-Difluoropiperidin-1-yl)pyridin-3-yl)-4,5-dihydropyrrolo[1,2-a]quinoxaline]													~ 2 fold	
OC1CCN(c2ncccc2C2Nc3ccccc3-n3cccc32)CC1 (stereo not drawn) [Compound 27, 1-(3-(4,5-Dihydropyrrolo[1,2-a]quinoxalin-4-yl)pyridin-2-yl)piperidin-4-ol]													~ 2 fold	
c1ccc2c(c1)NC(c1cccnc1N1CCN(CCn3ccnc3)CC1)c1cccn1-2 (stereo not drawn) [Compound 50, 4-(2-(4-(2-(1H-Imidazol-1-yl)ethyl)piperazin-1-yl)pyridin-3-yl)-4,5-dihydropyrrolo[1,2-a]quinoxaline]	no significant effects	strongly inhibited; also recorded: almost reversed	strongly inhibited; also recorded: almost reversed	strongly inhibited; also recorded: almost reversed	strongly inhibited	specifically promoted	no significant effects	significantly decreased	no significant effects	slight inhibition	significantly repressed	significantly repressed	6.29 ± 0.02 fold	Activation Fold 30 μM (Sirt6 [3]): 3.34 ± 0.19 fold
